Results reported in patent US20230299326A1, “REDOX FLOW BATTERY” (MITSUBISHI HEAVY INDUSTRIES, LTD., priority 2020, published 2023).
Values after ≈ are worked out from the molar mass of the structure shown.

Legend:
[1] = Solubility of the hydroquinone pentamer; assay type: physicochemical; conditions: per hydroquinone unit
[2] = Cyclic voltammogram of the hydroquinone pentamer (redox potential); assay type: physicochemical; conditions: glassy carbon working electrode, Ag/AgCl (3 M sodium chloride solution) reference, platinum wire counter electrode, sweep rate 25 mV/sec
Text: A cyclic voltammogram of the hydroquinone pentamer thus obtained was obtained. The measurement was made using a 5-mm diameter glassy carbon as the working electrode, Ag/AgCl (3 M sodium chloride solution) as the reference electrode, and platinum wire as the counter electrode at a sweep rate of 25 mV/sec.

## Oc1cc2c(O)cc1Cc1cc(O)c(cc1O)Cc1cc(O)c(cc1O)Cc1cc(O)c(cc1O)Cc1cc(O)c(cc1O)C2 [hydroquinone pentamer]
[1]
  solubility: 1800 mM (≈ 1100 mg/mL)
[2]
  redox potential: -0.75 V vs. SHE
